# In ChEMBL document CHEMBL5113408, “Design, synthesis and antitumour activity of novel 5(6)-amino-benzimidazolequinones containing a fused morpholine” (Eur J Med Chem, 2022):
# Key:
# Format in all cases: functional, cell-based
# [1] = tested on: MCF7; test: Antiproliferative activity against human MCF7 cells assessed as inhibition of cell growth by SRB assay
# [2] = tested on: ECa-109 cell line; test: Antiproliferative activity against human EC109 cells assessed as inhibition of cell growth by SRB assay
# [3] = tested on: MGC-803; test: Antiproliferative activity against human MGC-803 cells assessed as inhibition of cell growth by SRB assay
# [4] = tested on: HeLa; test: Antiproliferative activity against human HeLa cells assessed as inhibition of cell growth by SRB assay
SMILES,IC50 [1] [µM],IC50 [3] [µM],IC50 [4] [µM],IC50 [2] [µM]
O=C1C(Nc2ccc(Br)cc2)=CC(=O)c2c1nc1n2[C@H]2OC[C@@H](O)[C@H]2OC1,4.33,2.02,5.22,1.98
O=C1C(NC2CCCC2)=CC(=O)c2c1nc1n2[C@H]2OC[C@@H](O)[C@H]2OC1,> 16,> 16,> 16,> 16
O=C1C=C(Nc2ccc(C(F)(F)F)cc2)C(=O)c2c1nc1n2[C@H]2OC[C@@H](O)[C@H]2OC1,> 4,2.82,> 8,5.5
O=C1C=C(Nc2cccc(Cl)c2)C(=O)c2c1nc1n2[C@H]2OC[C@@H](O)[C@H]2OC1,4.72,1.77,6.04,4.69
O=C1C(NC2CC2)=CC(=O)c2c1nc1n2C[C@@H]([C@H](O)CO)OC1,> 16,> 16,> 16,> 16
COc1ccc(NC2=CC(=O)c3nc4n(c3C2=O)[C@H]2OC[C@@H](O)[C@H]2OC4)cc1,5.42,1.68,4.78,> 4
O=C1C=C(NC2CC2)C(=O)c2c1nc1n2C[C@@H]([C@H](O)CO)OC1,> 16,> 16,> 16,> 16
O=C1C=C(NC2CCCCC2)C(=O)c2c1nc1n2[C@H]2OC[C@@H](O)[C@H]2OC1,> 8,> 8,> 16,> 16
O=C1C=C(Nc2ccccc2F)C(=O)c2c1nc1n2[C@H]2OC[C@@H](O)[C@H]2OC1,3.64,2.08,5.12,2.76
COc1ccc(NC2=CC(=O)c3c(nc4n3[C@H]3OC[C@@H](O)[C@H]3OC4)C2=O)cc1,4.47,2.15,> 8,3.41
Cc1ccc(NC2=CC(=O)c3nc4n(c3C2=O)[C@H]2OC[C@@H](O)[C@H]2OC4)cc1,1.66,1.42,3.86,3.48
O=C1C=C(N2CCC2)C(=O)c2c1nc1n2[C@H]2OC[C@@H](O)[C@H]2OC1,> 16,> 16,> 16,> 16
CCc1ccc(NC2=CC(=O)c3c(nc4n3[C@H]3OC[C@@H](O)[C@H]3OC4)C2=O)cc1,8.99,1.11,6.51,> 4
O=C1C(Nc2ccc(C(F)(F)F)cc2)=CC(=O)c2c1nc1n2[C@H]2OC[C@@H](O)[C@H]2OC1,> 4,1.86,8.92,2.25

# Second part, led by results:
IC50 [1] [µM],IC50 [3] [µM],IC50 [4] [µM],SMILES,IC50 [2] [µM]
6.26,2.59,4.5,Cc1ccc(NC2=CC(=O)c3nc4n(c3C2=O)C[C@@H]([C@H](O)CO)OC4)cc1C,6.74
5.77,2.89,13.8,O=C1C(Nc2cccc(Cl)c2)=CC(=O)c2c1nc1n2C[C@@H]([C@H](O)CO)OC1,5.99
5.11,2.46,5.51,O=C1C(Nc2ccc(I)cc2)=CC(=O)c2c1nc1n2C[C@@H]([C@H](O)CO)OC1,3.14
5.01,2.78,7.89,O=C1C(Nc2ccc(Br)cc2)=CC(=O)c2c1nc1n2C[C@@H]([C@H](O)CO)OC1,3.56
4.28,2.02,7.18,O=C1C(Nc2ccc(C(F)(F)F)cc2)=CC(=O)c2c1nc1n2C[C@@H]([C@H](O)CO)OC1,4.03
10.6,4.82,3.9,Cc1ccc(NC2=CC(=O)c3nc4n(c3C2=O)C[C@@H]([C@H](O)CO)OC4)cc1,7.98
5.89,3.04,> 16,O=C1C(Nc2cccc(F)c2)=CC(=O)c2c1nc1n2C[C@@H]([C@H](O)CO)OC1,6.56
6.73,2.86,2.41,CCc1ccc(NC2=CC(=O)c3nc4n(c3C2=O)C[C@@H]([C@H](O)CO)OC4)cc1,4.87
